These compounds were tested against T1, PD-1/PD-L1 (Homo sapiens, UniProt Q9NZQ7) (assay: PD-1/PD-L1 homogenous time-resolved fluorescence (HTRF) binding assay). Conditions: recombinant human PD-L1 (19-238) His-tag / human PD-1 (25-167) Fc tag, class symbols.
T1 construct: Recombinant human PD-L1 protein (19-238) with a His-tag at the C-terminus; purchased AcroBiosystems PD1-H5229 (PD-L1); PD1-H5257 (PD-1)
T1 sequence (Q9NZQ7 19-238): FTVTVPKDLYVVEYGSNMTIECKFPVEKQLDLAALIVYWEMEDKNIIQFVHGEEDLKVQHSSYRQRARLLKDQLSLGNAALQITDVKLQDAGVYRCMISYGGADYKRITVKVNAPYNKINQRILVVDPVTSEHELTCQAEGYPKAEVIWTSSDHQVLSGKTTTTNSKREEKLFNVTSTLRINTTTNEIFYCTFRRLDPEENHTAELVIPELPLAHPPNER
Summary of the method: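 Inhibitors were preincubated 40 min at 25°C with 10 nM His-tagged human PD-L1 (19-238) and 3 nM Fc-tagged human PD-1 (25-167) in PBS pH 7.4 containing Tween-20, BSA and 1% DMSO. After 60 min with europium anti-human IgG and anti-His-APC, 665/620 nm signal ratio gave IC50 via percent-control fit.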
With `Cc1c(Nc2nccc3cc(CNCC(=O)N(C)C)cnc23)cccc1-c1cccc(Nc2nccc3cc(CNCC(=O)N(C)C)cnc23)c1C` [Example 145, 2,2′-(((((2,2′-dimethyl-[1,1′-biphenyl]-3,3′-diyl)bis(azanediyl))bis(1,7-naphthyridine-8,3-diyl))bis(methylene))bis(azanediyl))bis(N,N-dimethylacetamide)] the IC50 was under 25 nM.
In the case of `Cc1c(Nc2nccc3cc(CNCC(=O)N(C)C)cnc23)cccc1-c1cccc(Nc2nccc3cc(CNCC(F)(F)F)cnc23)c1C` [Example 146, 2-(((8-((2,2′-dimethyl-3′-((3-(((2,2,2-trifluoroethyl)amino)methyl)-1,7-naphthyridin-8-yl)amino)-[1,1′-biphenyl]-3-yl)amino)-1,7-naphthyridin-3-yl)methyl)amino)-N,N-dimethylacetamide], the IC50 is reported as under 25 nM.
`CNC(=O)CNCc1cnc2c(Nc3cccc(-c4cccc(Nc5nccc6cc(CNCC(=O)N(C)CCO)cnc56)c4C)c3C)nccc2c1` [Example 147, 2-(((8-((2,2′-dimethyl-3′-((3-(((2-(methylamino)-2-oxoethyl)amino)methyl)-1,7-naphthyridin-8-yl)amino)-[1,1′-biphenyl]-3-yl)amino)-1,7-naphthyridin-3-yl)methyl)amino)-N-(2-hydroxyethyl)-N-methylacetamide] showed an IC50 of under 25 nM.
`Cc1c(Nc2nccc3cc(CNCC(=O)O)cnc23)cccc1-c1cccc(Nc2nccc3cc(CNCC(=O)N(C)C)cnc23)c1C` [Example 148, ((8-((3′-((3-(((2-(dimethylamino)-2-oxoethyl)amino)methyl)-1,7-naphthyridin-8-yl)amino)-2,2′-dimethyl-[1,1′-biphenyl]-3-yl)amino)-1,7-naphthyridin-3-yl)methyl)glycine] showed an IC50 of under 25 nM.
Compound `Cc1c(Nc2nccc3cc(CNCC(=O)O)cnc23)cccc1-c1cccc(Nc2nccc3cc(CN4CCC4)cnc23)c1C` [Example 149, ((8-((3′-((3-(azetidin-1-ylmethyl)-1,7-naphthyridin-8-yl)amino)-2,2′-dimethyl-[1,1′-biphenyl]-3-yl)amino)-1,7-naphthyridin-3-yl)methyl)glycine] has an IC50 of under 25 nM.
`Cc1c(Nc2nccc3cc(CN4CC(O)C4)cnc23)cccc1-c1cccc(Nc2nccc3cc(CN4CC(O)C4)cnc23)c1C` [Example 150, 1,1′-((((2,2′-dimethyl-[1,1′-biphenyl]-3,3′-diyl)bis(azanediyl))bis(1,7-naphthyridine-8,3-diyl))bis(methylene))bis(azetidin-3-ol)] gave an IC50 of under 25 nM.
`Cc1c(Nc2nccc3cc(CN4CCOCC4)cnc23)cccc1-c1cccc(Nc2nccc3cc(CN4CCOCC4)cnc23)c1C` [Example 151, 2,2′-dimethyl-N3,N3′-bis(3-(morpholinomethyl)-1,7-naphthyridin-8-yl)-[1,1′-biphenyl]-3,3′-diamine] showed an IC50 of under 25 nM.
`CC(=O)NCCNCc1cnc2c(Nc3cccc(-c4cccc(Nc5nccc6cc(CNCCNC(C)=O)cnc56)c4C)c3C)nccc2c1` [Example 152, N,N′-((((((2,2′-dimethyl-[1,1′-biphenyl]-3,3′-diyl)bis(azanediyl))bis(1,7-naphthyridine-8,3-diyl))bis(methylene))bis(azanediyl))bis(ethane-2,1-diyl))diacetamide] was tested, and the IC50 was under 25 nM.
`Cc1c(Nc2nccc3cc(CN4CC[C@H](N(C)C)C4)cnc23)cccc1-c1cccc(Nc2nccc3cc(CN4CC[C@H](N(C)C)C4)cnc23)c1C` [Example 153, N3,N3′-bis(3-(((S)-3-(dimethylamino)pyrrolidin-1-yl)methyl)-1,7-naphthyridin-8-yl)-2,2′-dimethyl-[1,1′-biphenyl]-3,3′-diamine] gave an IC50 of under 25 nM.
Compound `Cc1c(Nc2nccc3cc(CNCC(=O)O)cnc23)cccc1-c1cccc(Nc2nccc3cc(CN4CC[C@H](N(C)C)C4)cnc23)c1C` [Example 154, (S)-((8-((3′-((3-((3-(dimethylamino)pyrrolidin-1-yl)methyl)-1,7-naphthyridin-8-yl)amino)-2,2′-dimethyl-[1,1′-biphenyl]-3-yl)amino)-1,7-naphthyridin-3-yl)methyl)glycine] has an IC50 of under 25 nM.
For `Cc1c(Nc2nccc3cc(CN4CCCCC4C(=O)O)cnc23)cccc1-c1cccc(Nc2nccc3cc(CN4CCCCC4C(=O)O)cnc23)c1C` (centres unmarked) [Example 155, 1,1′-((((2,2′-dimethyl-[1,1′-biphenyl]-3,3′-diyl)bis(azanediyl))bis(1,7-naphthyridine-8,3-diyl))bis(methylene))bis(piperidine-2-carboxylic acid)], the IC50 was under 25 nM.
For `Cc1c(Nc2nccc3cc(CNCCO)cnc23)cccc1-c1cccc(Nc2nccc3cc(CNCC(F)(F)F)cnc23)c1C` [Example 156, 2-(((8-((2,2′-dimethyl-3′-((3-(((2,2,2-trifluoroethyl)amino)methyl)-1,7-naphthyridin-8-yl)amino)-[1,1′-biphenyl]-3-yl)amino)-1,7-naphthyridin-3-yl)methyl)amino)ethan-1-ol], the IC50 was under 25 nM.
With `Cc1c(Nc2nccc3cc(CNC4([C@H](C)O)CC4)cnc23)cccc1-c1cccc(Nc2nccc3cc(CNC4([C@H](C)O)CC4)cnc23)c1C` [Example 157, (1S,1'S)-1,1′-((((((2,2′-dimethyl-[1,1′-biphenyl]-3,3′-diyl)bis(azanediyl))bis(1,7-naphthyridine-8,3-diyl))bis(methylene))bis(azanediyl))bis(cyclopropane-1,1-diyl))bis(ethan-1-ol)] the IC50 was under 25 nM.
For `COC(=O)NCCNCc1cnc2c(Nc3cccc(-c4cccc(Nc5nccc6cc(CNCCNC(=O)OC)cnc56)c4C)c3C)nccc2c1` [Example 158, dimethyl ((((((2,2′-dimethyl-[1,1′-biphenyl]-3,3′-diyl)bis(azanediyl))bis(1,7-naphthyridine-8,3-diyl))bis(methylene))bis(azanediyl))bis(ethane-2,1-diyl))dicarbamate], the IC50 was under 25 nM.
`COC(=O)NCCNCc1cnc2c(Nc3cccc(-c4cccc5c4CCN5C(=O)C4=NC5CCN(CC(=O)O)CC5S4)c3C)nccc2c1` (centres unmarked) [Example 159, 2-(2-(4-(3-((3-(((2-((methoxycarbonyl)amino)ethyl)amino)methyl)-1,7-naphthyridin-8-yl)amino)-2-methylphenyl)indoline-1-carbonyl)-3a,6,7,7a-tetrahydrothiazolo[5,4-c]pyridin-5(4H)-yl)acetic acid] was tested, and the IC50 was under 25 nM.
`Cc1c(Nc2nccc3cc(CNCC(=O)O)cnc23)cccc1-c1cccc2c1CCN2C(=O)C1=NC2CCN(CC(=O)O)CC2S1` (centres unmarked) [Example 160, ((8-((3-(1-(5-(carboxymethyl)-3a,4,5,6,7,7a-hexahydrothiazolo[5,4-c]pyridine-2-carbonyl)indolin-4-yl)-2-methylphenyl)amino)-1,7-naphthyridin-3-yl)methyl)glycine] showed an IC50 of under 25 nM.
With `Cc1c(Nc2nccc3cc(CNCC(=O)O)cnc23)cccc1-c1cccc2c1CCN2C(=O)C1=NC2CCN(CCC(=O)O)CC2S1` (centres unmarked) [Example 161, 3-(2-(4-(3-((3-(((carboxymethyl)amino)methyl)-1,7-naphthyridin-8-yl)amino)-2-methylphenyl)indoline-1-carbonyl)-3a,6,7,7a-tetrahydrothiazolo[5,4-c]pyridin-5(4H)-yl)propanoic acid] the IC50 was under 25 nM.
`Cc1c(Nc2nccc3cc(CNCCO)cnc23)cccc1-c1cccc2c1CCN2C(=O)C1=NC2CCN(CCC(=O)O)CC2S1` (centres unmarked) [Example 162, 3-(2-(4-(3-((3-(((2-hydroxyethyl)amino)methyl)-1,7-naphthyridin-8-yl)amino)-2-methylphenyl)indoline-1-carbonyl)-3a,6,7,7a-tetrahydrothiazolo[5,4-c]pyridin-5(4H)-yl)propanoic acid] showed an IC50 of under 25 nM.
`Cc1c(Nc2nccc3cc(CN[C@@H](C)C(=O)O)cnc23)cccc1-c1cccc2c1CCN2C(=O)C1=NC2CCN(CC(=O)O)CC2S1` (some centres unmarked) [Example 163, ((8-((3-(1-(5-(carboxymethyl)-3a,4,5,6,7,7a-hexahydrothiazolo[5,4-c]pyridine-2-carbonyl)indolin-4-yl)-2-methylphenyl)amino)-1,7-naphthyridin-3-yl)methyl)alanine] gave an IC50 of under 25 nM.
With `Cc1c(Nc2nccc3cc(CNCC(N)=O)cnc23)cccc1-c1cccc2c1CCN2C(=O)C1=NC2CCN(CC(=O)O)CC2S1` (centres unmarked) [Example 164, 2-(2-(4-(3-((3-(((2-amino-2-oxoethyl)amino)methyl)-1,7-naphthyridin-8-yl)amino)-2-methylphenyl)indoline-1-carbonyl)-3a,6,7,7a-tetrahydrothiazolo[5,4-c]pyridin-5(4H)-yl)acetic acid] the IC50 was under 25 nM.
`Cc1c(Nc2nccc3cc(CNCC(=O)N(C)C)cnc23)cccc1-c1cccc2c1CCN2C(=O)C1=NC2CCN(CC(=O)O)CC2S1` (centres unmarked) [Example 165, 2-(2-(4-(3-((3-(((2-(dimethylamino)-2-oxoethyl)amino)methyl)-1,7-naphthyridin-8-yl)amino)-2-methylphenyl)indoline-1-carbonyl)-3a,6,7,7a-tetrahydrothiazolo[5,4-c]pyridin-5(4H)-yl)acetic acid] showed an IC50 of under 25 nM.
In the case of `Cc1c(Nc2nccc3cc(CNCC(=O)N(C)CCO)cnc23)cccc1-c1cccc2c1CCN2C(=O)C1=NC2CCN(CC(=O)O)CC2S1` (centres unmarked) [Example 166, 2-(2-(4-(3-((3-(((2-((2-hydroxyethyl)(methyl)amino)-2-oxoethyl)amino)methyl)-1,7-naphthyridin-8-yl)amino)-2-methylphenyl)indoline-1-carbonyl)-3a,6,7,7a-tetrahydrothiazolo[5,4-c]pyridin-5(4H)-yl)acetic acid], the IC50 is reported as under 25 nM.
Compound `Cc1c(NC(=O)c2ccc3c(n2)CCNC3)cccc1-c1cccc(NC(=O)c2ccc3c(n2)CCNC3)c1C` [Example 167, N,N′-(2,2′-dimethyl-[1,1′-biphenyl]-3,3′-diyl)bis(5,6,7,8-tetrahydro-1,6-naphthyridine-2-carboxamide)] has an IC50 of under 25 nM.

— patent US20210040118A1, “IMMUNOMODULATORS, COMPOSITIONS AND METHODS THEREOF” (BETTA PHARMACEUTICALS CO., LTD, priority 2018, published 2021)
